# Data as given in patent US10155726B2, “Substituted pyridines and uses thereof” (PELOTON THERAPEUTICS, INC., priority 2015, dated 2018).
# Entries after “also recorded” stand apart in the source; their conditions may differ.
# Key:
# [1] = biological target: T1, HIF-2α HIS TAG-PASB Domain (Homo sapiens, UniProt Q99814); assay: HIF-2α Scintillation Proximity Assay (SPA); format: binding; settings: displacement of tritiated probe from HIF-2α PAS-B domain
# T1 construct: 100 nM HIF-2α HIS TAG-PASB Domain
# T1 sequence (Q99814 239-348): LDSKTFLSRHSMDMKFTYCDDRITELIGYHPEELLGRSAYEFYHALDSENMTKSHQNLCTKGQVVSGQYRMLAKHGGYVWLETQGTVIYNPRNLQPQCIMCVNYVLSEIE
# Description: The total assay volume was about 100 μL in the following configuration: 2 μL compound in 100% DMSO, 88 μL buffer with protein and probe and 10 μL of SPA beads. […] The percent inhibition was determined and IC50 values were calculated using the Dotmatics system based on the following equation: % inhibition=[(high control−sample)/(high control−low control)]×100.
# 786-O-Hif-Luc cells = assay: Luciferase Assay; format: cell-based; settings: about 24 hours
# Description: 786-O-Hif-Luc single clone cells were obtained by infecting 786-O cells (ATCC® CRL-1932™) with commercial lentivirus that delivers a luciferase gene driven by multiple HIF responsive elements (Cignal Lenti HIF Reporter (luc): CLS-007L, Qiagen) at Multiplicity of Infection (MOI) of 25 for 24 hours. […] A pool of infected cells were then selected against 2 μg/mL of puromycin (P8833, Sigma) for 10 days followed by limited dilution to select single clones. […] For the luciferase assay, about 7500 786-O-Hif-Luc cells in 90 μL growth medium were seeded into each well of a 96-well white opaque plate (08-771-26, Fisher scientific) a day before treatment with the layout presented in FIG. 4. […] Each concentration was tested in triplicate. After about 24 hours, luciferase activity was determined using ONE-Glo Luciferase Assay Reagent (E6110, Promega) following the manufacturer's recommended procedure. EC50 were calculated using Dotmatics software.
# 786-O cells = assay: VEGF ELISA Assay; format: cell-based; settings: Homo sapiens, 786-0; VEGF concentration in culture medium of 786-O cells
# Description: About 7500 786-O cells in 180 μL of growth medium were seeded into each well of a 96-well, white, clear bottom plate (07-200-566, Fisher Scientific) on day one in the layout presented in FIG. 3. […] Each concentration was plated in duplicate. About 20 hours later, medium was removed by suction and each well was supplied with 180 μL of growth medium. About 20 μl freshly-made 10× compound stocks were added to each well. […] The EC50 was calculated by GraphPad Prism using the dose-response-inhibition (four parameter) equation. The cell-seeded plate was then subjected to CellTiter-Glo luminescence cell viability assay (Promega) by adding 50 μL of Celltiter Glo reagent into each well and shaking the plate for 8 minutes at 550 rpm (Thermomixer R, Eppendorf) then the luminescence signal immediately read in a plate reader (3 second delay, 0.5 second/well integration time, Synergy 2 multi Detection Microplate reader).
# [2] = test system: HIF-2α target genes VEGF, PAI-1 and CCND1; assay: PK/PD study: expression of HIF-2α regulated genes in 786-O tumor xenografts by qRT-PCR; format: in vivo, SCID/Biege mice; settings: 10 mg/kg oral gavage, six doses at 12 hour interval, 12 hours post last dose
# Description: (§1) When the xenografts reached about 750 mm^3 in size, the tumor bearing mice were randomly grouped into four groups (n=3). […] All animals were sacrificed at 12 hours post last dose. Tumors and plasma were collected from each animal. Total RNA was extracted from the tumors, and the expression levels of putative HIF-2α regulated genes were determined by qRT-PCR. […] The level of human VEGFA was assessed using an ELISA assay.
# human VEGFA = assay: PK/PD study: human VEGFA in plasma of 786-O xenograft bearing mice by ELISA; format: in vivo, SCID/Biege mice; settings: 10 mg/kg oral gavage, six doses at 12 hour interval, 12 hours post last dose
# Description: as §1
Structure (SMILES),IC50 [1],EC50 (786-O-Hif-Luc cells),EC50 (786-O cells),"mRNA levels of HIF-2α target genes (VEGF, PAI-1, CCND1) in 786-O xenografts [2]",level of human VEGFA in plasma of 786-O xenograft bearing mice (human VEGFA)
"N#Cc1cc(F)cc(-c2cnc(C(F)(F)F)c3c2C[C@@H](F)[C@H]3O)c1 (racemic) [Compound 7, 3-fluoro-5-((6R,7S)-6-fluoro-7-hydroxy-1-(trifluoromethyl)-6,7-dihydro-5H-cyclopenta[c]pyridin-4-yl)benzonitrile]",0.25 to 1 µM,0.25 to 1 µM,–,–,–
"O[C@H]1c2c(C(F)(F)F)ncc(OC3CC(F)(F)C3)c2C[C@H]1F [Compound 1, (6R,7S)-4-(3,3-difluorocyclobutoxy)-6-fluoro-1-(trifluoromethyl)-6,7-dihydro-5H-cyclopenta[c]pyridin-7-ol]",< 0.05 µM,< 0.05 µM,< 0.05 µM,–,–
"O[C@@H]1CCc2c(OC3CC(F)(F)C3)cnc(C(F)(F)F)c21 [Compound 2, (R)-4-(3,3-difluorocyclobutoxy)-1-(trifluoromethyl)-6,7-dihydro-5H-cyclopenta[c]pyridin-7-ol]",< 0.05 µM,0.25 to 1 µM,–,–,–
"N#Cc1cc(F)cc(Oc2cnc(C(F)(F)F)c3c2C[C@@H](F)[C@H]3O)c1 [Compound 3, 3-fluoro-5-(((6R,7S)-6-fluoro-7-hydroxy-1-(trifluoromethyl)-6,7-dihydro-5H-cyclopenta[c]pyridin-4-yl)oxy)benzonitrile]",< 0.05 µM,< 0.05 µM,0.05 to 0.249 µM,–,–
"CS(=O)(=O)c1ncc(Oc2cc(F)cc(C#N)c2)c2c1[C@H](O)[C@H](F)C2 [Compound 4, 3-fluoro-5-(((6R,7S)-6-fluoro-7-hydroxy-1-(methylsulfonyl)-6,7-dihydro-5H-cyclopenta[c]pyridin-4-yl)oxy)benzonitrile]",0.05 to 0.249 µM,0.25 to 1 µM,–,–,–
"O=S(=O)(c1cnc(Oc2cc(F)cc(F)c2)c2c1CCC2)C(F)F [Compound 6, 4-(difluoromethylsulfonyl)-1-(3,5-difluorophenoxy)-6,7-dihydro-5H-cyclopenta[c]pyridine]",> 1 µM,> 1 µM,–,–,–
N#Cc1cc(F)cc(Oc2cnc(C(F)(F)F)c3c2CCC3O)c1 (stereo not shown) [Compound 8],< 0.05 µM,0.25 to 1 µM,–,–,–
O[C@H]1c2c(C(F)(F)F)ncc(OCC(F)F)c2C[C@H]1F [Compound 9],< 0.05 µM,0.05 to 0.249 µM,0.25 to 1 µM,–,–
O[C@@H]1CCc2c(OCC(F)F)cnc(C(F)(F)F)c21 [Compound 10],> 1 µM,> 1 µM,–,–,–
CS(=O)(=O)c1ncc(OC2CC(F)(F)C2)c2c1[C@H](O)[C@@H](F)C2 [Compound 11],> 1 µM,–,–,–,–
CS(=O)(=O)c1ncc(OC2CC(F)(F)C2)c2c1[C@H](O)[C@H](F)C2 [Compound 12],0.25 to 1 µM,> 1 µM,–,–,–
O[C@H]1c2c(C(F)(F)F)ncc(Oc3cncc(F)c3)c2C[C@H]1F [Compound 13],0.05 to 0.249 µM,0.05 to 0.249 µM,–,–,–
O[C@H]1c2c(C(F)(F)F)ncc(O[C@H]3C[C@H](F)C3)c2C[C@H]1F [Compound 14],< 0.05 µM,< 0.05 µM,< 0.05 µM,–,–
N#Cc1cc(F)cc(Oc2ncc(Br)c3c2C(F)C(F)(F)C3F)c1 (stereo not shown) [Compound 16],> 1 µM,–,–,–,–
N#Cc1cc(F)cc(Oc2ncc(Br)c3c2[C@@H](F)C(F)(F)[C@H]3O)c1 [Compound 17],0.05 to 0.249 µM,> 1 µM,–,–,–
CS(=O)(=O)c1cnc(Oc2cc(F)cc(C#N)c2)c2c1[C@H](O)[C@H](F)[C@@H]2F [Compound 18],> 1 µM,–,–,–,–
CS(=O)(=O)c1cnc(Oc2cc(F)cc(C#N)c2)c2c1[C@H](O)[C@H](F)C2 [Compound 19],> 1 µM,–,–,–,–
CS(=O)(=O)c1cnc(Oc2cc(F)cc(C#N)c2)c2c1[C@H](O)C(F)(F)[C@@H]2F [Compound 20],< 0.05 µM,> 1 µM,–,–,–
CS(=O)(=O)c1cnc(Oc2cc(F)cc(C#N)c2)c2c1[C@H](O)C(F)(F)[C@H]2F [Compound 21],0.25 to 1 µM,> 1 µM,–,–,–

Structure (SMILES),IC50 [1],EC50 (786-O-Hif-Luc cells),EC50 (786-O cells),"mRNA levels of HIF-2α target genes (VEGF, PAI-1, CCND1) in 786-O xenografts [2]",level of human VEGFA in plasma of 786-O xenograft bearing mice (human VEGFA)
"N#Cc1cc(F)cc(Oc2cnc(C(F)(F)F)c3c2[C@@H](F)[C@@H](F)[C@H]3O)c1 [Compound 22, 3-(((5R,6S,7S)-5,6-difluoro-7-hydroxy-1-(trifluoromethyl)-6,7-dihydro-5H-cyclopenta[c]pyridin-4-yl)oxy)-5-fluorobenzonitrile]",< 0.05 µM,< 0.05 µM,< 0.05 µM,decreased; also recorded: significant reduction,decreased; also recorded: significant reduction
O[C@H]1c2c(C(F)(F)F)ncc(OCCCF)c2C[C@H]1F [Compound 23],< 0.05 µM,0.05 to 0.249 µM,–,–,–
O[C@H]1c2c(C(F)(F)F)ncc(OCCCF)c2C[C@@H]1F [Compound 24],0.05 to 0.249 µM,–,–,–,–
CC(C)Oc1cnc(C(F)(F)F)c2c1C[C@@H](F)[C@H]2O [Compound 25],0.25 to 1 µM,–,–,–,–
CC(C)Oc1cnc(C(F)(F)F)c2c1C[C@H](F)[C@H]2O [Compound 26],> 1 µM,–,–,–,–
O[C@H]1c2c(C(F)(F)F)ncc(OCC(F)F)c2C[C@@H]1F [Compound 27],0.05 to 0.249 µM,0.05 to 0.249 µM,–,–,–
CS(=O)(=O)c1cnc(Oc2cc(F)cc(C#N)c2)c2c1C(O)CC2 (stereo not shown) [Compound 28],> 1 µM,–,–,–,–
O[C@H]1c2c(C(F)F)ncc(OC3CC(F)(F)C3)c2C[C@H]1F [Compound 30],> 1 µM,–,–,–,–
O[C@H]1c2c(C(F)F)ncc(OC3CC(F)(F)C3)c2C[C@@H]1F [Compound 31],> 1 µM,–,–,–,–
N#Cc1cc(F)cc(Oc2ncc(C(F)(F)F)c3c2CCC3O)c1 (stereo not shown) [Compound 32],> 1 µM,–,–,–,–
"N#Cc1cc(F)cc(Oc2ncc(C(F)(F)F)c3c2C[C@@H](F)[C@H]3O)c1 [Compound 33, 3-fluoro-5-(((5S,6R)-6-fluoro-5-hydroxy-4-(trifluoromethyl)-6,7-dihydro-5H-cyclopenta[c]pyridin-1-yl)oxy)benzonitrile]",> 1 µM,–,–,–,–
"N#Cc1cncc(Oc2cnc(C(F)(F)F)c3c2[C@@H](F)[C@@H](F)[C@H]3O)c1 [Compound 34, 5-(((5R,6S,7S)-5,6-difluoro-7-hydroxy-1-(trifluoromethyl)-6,7-dihydro-5H-cyclopenta[c]pyridin-4-yl)oxy)nicotinonitrile]",< 0.05 µM,0.05 to 0.249 µM,0.05 to 0.249 µM,decreased; also recorded: significant reduction,decreased; also recorded: significant reduction
O[C@H]1c2c(C(F)(F)F)ncc(-c3ccccc3)c2C[C@H]1F [Compound 35],> 1 µM,–,–,–,–
O[C@H]1c2c(C(F)(F)F)ncc(-c3cc(F)cc(F)c3)c2C[C@H]1F [Compound 36],0.25 to 1 µM,–,–,–,–
"O[C@H]1c2c(C(F)(F)F)ncc(OC3CC(F)(F)C3)c2[C@@H](F)[C@H]1F [Compound 37, (5R,6S,7S)-4-(3,3-difluorocyclobutoxy)-5,6-difluoro-1-(trifluoromethyl)-6,7-dihydro-5H-cyclopenta[c]pyridin-7-ol]",< 0.05 µM,< 0.05 µM,< 0.05 µM,decreased; also recorded: significant reduction,decreased; also recorded: significant reduction
O/N=C1/c2c(C(F)(F)F)ncc(OCC(F)F)c2CC1F (stereo not shown) [Compound 38],> 1 µM,–,–,–,–
OC1CCc2c(OCC(F)F)cnc(C3(C(F)(F)F)CC3)c21 (stereo not shown) [Compound 39],> 1 µM,–,–,–,–
O[C@H]1c2c(C(F)(F)F)ncc(Oc3cncc(F)c3)c2[C@@H](F)[C@H]1F [Compound 40],< 0.05 µM,< 0.05 µM,–,–,–
"N#Cc1cc(F)cc(Oc2nnc(C(F)(F)F)c3c2CCC3O)c1 (stereo not shown) [Compound 42, 3-fluoro-5-((5-hydroxy-4-(trifluoromethyl)-6,7-dihydro-5H-cyclopenta[d]pyridazin-1-yl)oxy)benzonitrile]",> 1 µM,> 1 µM,–,–,–
